Measurements from US6972319B1, “Pituitary adenylate cyclase activating peptide (PACAP)receptor 3 (R3) agonists and their pharmacological methods of use” (priority 1999, dated 2005).
No end group written: not given here.

T1: PACAP-R3 (Homo sapiens, UniProt P41587)
T1 sequence (P41587 24-438): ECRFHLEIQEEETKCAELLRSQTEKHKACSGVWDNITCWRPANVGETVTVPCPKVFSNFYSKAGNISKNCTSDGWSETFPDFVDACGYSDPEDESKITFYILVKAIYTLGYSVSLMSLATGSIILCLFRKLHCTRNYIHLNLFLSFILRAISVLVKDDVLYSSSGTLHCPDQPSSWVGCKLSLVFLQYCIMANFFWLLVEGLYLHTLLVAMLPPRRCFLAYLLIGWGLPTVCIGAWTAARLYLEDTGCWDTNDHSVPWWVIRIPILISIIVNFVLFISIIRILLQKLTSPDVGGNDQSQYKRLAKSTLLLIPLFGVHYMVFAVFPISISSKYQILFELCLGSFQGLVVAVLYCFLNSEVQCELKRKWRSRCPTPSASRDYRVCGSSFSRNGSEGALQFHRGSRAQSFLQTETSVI

T2: PACAP-R2 (Homo sapiens, UniProt P32241)
T2 construct: expressed in transfected cells; host or cells: CHO cells
T2 sequence (P32241 31-457): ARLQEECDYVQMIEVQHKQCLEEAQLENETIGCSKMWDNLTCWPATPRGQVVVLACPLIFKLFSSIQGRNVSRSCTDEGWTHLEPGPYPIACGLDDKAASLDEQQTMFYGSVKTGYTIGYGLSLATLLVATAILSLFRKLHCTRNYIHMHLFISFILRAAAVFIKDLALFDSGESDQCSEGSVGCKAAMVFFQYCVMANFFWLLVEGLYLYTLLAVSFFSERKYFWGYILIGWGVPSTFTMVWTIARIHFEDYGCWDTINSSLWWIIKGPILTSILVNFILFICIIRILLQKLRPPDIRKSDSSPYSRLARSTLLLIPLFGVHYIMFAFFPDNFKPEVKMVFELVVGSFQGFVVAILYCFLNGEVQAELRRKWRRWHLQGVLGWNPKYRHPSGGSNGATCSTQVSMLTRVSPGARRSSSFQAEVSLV

T3: PACAP-R3 (human, UniProt P41587 24-438)
T3 sequence (looked up): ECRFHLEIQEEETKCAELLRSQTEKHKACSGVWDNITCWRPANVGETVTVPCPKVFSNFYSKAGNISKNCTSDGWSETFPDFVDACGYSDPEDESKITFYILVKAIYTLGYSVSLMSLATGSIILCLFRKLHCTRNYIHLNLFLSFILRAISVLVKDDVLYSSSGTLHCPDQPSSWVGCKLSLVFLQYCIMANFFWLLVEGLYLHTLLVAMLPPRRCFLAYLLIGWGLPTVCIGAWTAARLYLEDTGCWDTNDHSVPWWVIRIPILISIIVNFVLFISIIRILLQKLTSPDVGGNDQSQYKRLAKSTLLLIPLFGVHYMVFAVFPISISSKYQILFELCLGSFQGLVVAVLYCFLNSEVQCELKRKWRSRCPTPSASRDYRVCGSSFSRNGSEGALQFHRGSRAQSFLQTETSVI


Assays:
PACAP-R3 [1] = molecular target: T1, PACAP-R3; assay: Cyclic AMP SPA on CHO cells expressing PACAP R3; assay type: cell-based; design: expressed in transfected cells; host or cells: CHO cells (Geneticin selection); conditions: for EC50: cAMP SPA, CHO cells transfected with PACAP-R3, concentration at which 50% of maximum PACAP27 activity is achieved, NA = no detectable activities, read-out: R3 EC50; for R3 Selectivity: ratio of EC50 at R2 versus EC50 at R3
In short: (§1)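 CHO cells expressing human PACAP-R2 or PACAP-R3 were exposed to peptide for 15 min at 37 °C with 100 μM IBMX and protease inhibitors. cAMP was measured by SPA. EC50 is the concentration giving 50% of maximal PACAP27 activity, and R3 selectivity is EC50(R2)/EC50(R3).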

PACAP-R2 = molecular target: T2, PACAP-R2; assay: Cyclic AMP SPA on CHO cells transfected with PACAP-R2; assay type: cell-based; conditions: cAMP SPA, concentration at which 50% of maximum PACAP27 activity is achieved, NA = no detectable activities, read-out: R2 EC50
In short: as §1

PACAP-R3 [2] = molecular target: T3, PACAP-R3; assay: cell-based or functional assay

Molecule | R3 EC50, nM (cAMP SPA) (PACAP-R3 [2]) | R3 Selectivity (PACAP-R3 [2]) | EC50 (PACAP-R3 [1]) | R3 Selectivity (PACAP-R3 [1]) | EC50 (PACAP-R2)
HSDAVFTDNYTRLRKQVAAKKYLNSIKNKRY [Peptide R3P68] | – | – | 0.5 nM | 260 | 130 nM
HSDAVFTDNYTRLRKQMAAKKYLNSIRNRI [rR3P189] | – | – | 0.04 nM | 30 | 1.3 nM
HSDAVFTDNYTRLRKQMAYKKYLNSIKNKR [Peptide R3P115] | – | – | 6 nM | 50 | 300 nM
HSDAVFTDNYTRLRKQMAAKKYLNSIKNPR [Peptide R3P145] | – | – | 0.5 nM | 100 | 50 nM
HSDAVFTDNYTRLRKQMAHKKYLNSIKNKR [Peptide R3P102] | – | – | 60 nM | 5 | 300 nM
HSDAVFTDNYTRLRKQMAAKKYLNSIKNRR [Peptide R3P147] | – | – | 0.2 nM | 500 | 100 nM
H-HSDGIFTDSYSRYRKQMAVKKYKAAVL-NH2 [PAC23] | – | – | 13 nM | 13 | 170 nM
HSDAVFTDNYTRLRKQMAVKKYLNSIKK-NH2 [Peptide R3P8] | – | – | 1.4 nM | 1.5 | 2 nM
HSDAVFTDNYTRLRKQVAVKKYLQSILKKRY [Peptide R3P87] | – | – | 0.2 nM | 3 | 0.6 nM
HSDAVFTDNYTRLRKQLAAKKYLNDILNGGT [Peptide R3P27] | – | – | 0.8 nM | 8 | 6.4 nM
HSDGIFTDSYSRYRKQMAVKEYLAAVL-NH2 [PAC21] | – | – | 0.24 nM | 10 | 2.5 nM
HSDAVFTDNYTRLRKQMARKKYLNSIRNRI [rR3P192] | – | – | 0.6 nM | 60 | 40 nM
HSDAVFTDNYTRLRKQMAWKKYLNSIKNKR [Peptide R3P114] | – | – | 2 nM | 10 | 20 nM
ESDGIFTDSYSRYRKQMAVKKYLAAVL-NH2 [PAC1] | – | – | 10 nM | 97 | 970 nM
HSDAVFTDNYTRLRKQVAAKKYLQSILKK [Peptide R3P85] | – | – | 0.18 nM | 30 | 5 nM
H-HSDAVFTDNYTRLRKQMAAKKYLNSIQNKR [Peptide R3P127] | – | – | 0.5 nM | 600 | 300 nM
HSDAVFTDNYTRLRKQLAAKKYLNDIKKQ [Peptide R3P34] | – | – | 1.4 nM | >70 | > 100 nM
HSDAVFTDNYTRLRKQMAAKKYLNSIKNKK [Peptide R3P161] | – | – | 0.2 nM | 300 | 60 nM
HSDAVFTDNYTRLRKQMAAKKYLNSIKNKA [Peptide R3P153] | – | – | 0.2 nM | 200 | 40 nM
HSDAVFTDNYTRLRKQMARKKYLNSIKNRI [rR3P177] | – | – | 1.6 nM | 70 | 110 nM
HSDAVFTDNYTRLRKQMAKKKYLNSIQNRI [rR3P186] | – | – | 1.6 nM | 44 | 70 nM
HSDAVFTDNYTRLRKQMAAKKYLNSIKNKP [R3P165] | 0.5 nM | 300 ratio | – | – | –
HSDAVFTDNYTRLRKQMAAKKYLNSIKNKS [R3P167] | 1 nM | – | – | – | –
HSDAVFTDNYTRLRKQMAAKKYLNSIKNKT [R3P168] | 0.2 nM | 300 ratio | – | – | –
HSDAVFTDNYTRLRKQMAAKKYLNSIKNKV [R3P169] | 0.2 nM | 300 ratio | – | – | –
ESDGIFTDSYSRYRKQMAVKKYLAAVL-NH2 [PAC1] | 10 nM | 97 ratio | – | – | –
HSDGIFTKSYSRYRKQMAVKKYLAAVL-NH2 [PAC8] | 47 nM | 1 ratio | – | – | –
HSDGIFTDSYSRYEKQMAVKKYLAAVL-NH2 [PAC14] | 1.6 nM | 70 ratio | – | – | –
HSDGIFTDSYSRYREQMAVKKYLAAVL-NH2 [PAC15] | 0.2 nM | 12 ratio | – | – | –
HSDGIFTDSYSRYRKQKAVKKYLAAVL-NH2 [PAC17] | 0.15 nM | 1.6 ratio | – | – | –

Continued, in another order:

R3 EC50, nM (cAMP SPA) (PACAP-R3 [2]) | R3 Selectivity (PACAP-R3 [2]) | Molecule | EC50 (PACAP-R3 [1]) | R3 Selectivity (PACAP-R3 [1]) | EC50 (PACAP-R2)
0.4 nM | – | HSDAVFTDNYTRLRKQMAAKKYLNSIKNKY [R3P171] | – | – | –
2.6 nM | 29 ratio | HSDAVFTDNYTRLRKQVAAKKYLQSIKNKRYSWCEPGWCR [R3P172] | – | – | –
200 nM | – | HSDAVFTDDYTRLRKEVAAKKYLESIKDKRY [R3P173] | – | – | –
34 nM | – | HKDGIFTDSYSRYRKQMAVKKYLAAVL-NH2 [PAC2] | – | – | –
7 nM | 6 ratio | HSDKIFTDSYSRYRKQMAVKKYLAAVL-NH2 [PAC4] | – | – | –
0.7 nM | 1 ratio | HSDGIFTDKYSRYRKQMAVKKYLAAVL-NH2 [PAC9] | – | – | –
27 nM | 4 ratio | HSDGIFTDSKSRYRKQMAVKKYLAAVL-NH2 [PAC10] | – | – | –
140 nM | 0.1 ratio | HSDGIFTDSYKRYRKQMAVKKYLAAVL-NH2 [PAC11] | – | – | –
3 nM | 50 ratio | HSDGIFTDSYSEYRKQMAVKKYLAAVL-NH2 [PAC12] | – | – | –
0.5 nM | 6 ratio | HSDGIFTDSYSRKRKQMAVKKYLAAVL-NH2 [PAC13] | – | – | –
0.2 nM | 1 ratio | HSDGIFTDSYSRYRKKMAVKKYLAAVL-NH2 [PAC16] | – | – | –
0.4 nM | 20 ratio | HSDGIFTDSYSRYRKQMAKKKYLAAVL-NH2 [PAC19] | – | – | –
0.7 nM | 30 ratio | HSDGIFTDSYSRYRKQMAVEKYLAAVL-NH2 [PAC20] | – | – | –
0.24 nM | 10 ratio | HSDGIFTDSYSRYRKQMAVKEYLAAVL-NH2 [PAC21] | – | – | –
15 nM | 0.1 ratio | HSDGIFTDSYSRYRKQMAVKKKLAAVL-NH2 [PAC22] | – | – | –
13 nM | 13 ratio | HSDGIFTDSYSRYRKQMAVKKYKAAVL-NH2 [PAC23] | – | – | –
0.2 nM | 1.5 ratio | HSDGIFTDSYSRYRKQMAVKKYLKAVL-NH2 [PAC24] | – | – | –
